From US4563527A, “Amidine compounds” (Torii & Co., Ltd., priority 1984, dated 1986)
Where two headings read alike, the source gives them in different places.

Columns and labels:
[1] = target: Thrombin (Homo sapiens, UniProt P00734); test: biochemical; conditions: read-out: ID50 thrombin
[2] = target: T1, Trypsin (Bos taurus, UniProt P00760); test: Anti-trypsin activity (hydrolysis of TAME); assay type: biochemical; conditions: molar concentration inhibiting 50% of TAME hydrolysis; read-out: ID50 trypsin
T1 sequence (P00760 24-246): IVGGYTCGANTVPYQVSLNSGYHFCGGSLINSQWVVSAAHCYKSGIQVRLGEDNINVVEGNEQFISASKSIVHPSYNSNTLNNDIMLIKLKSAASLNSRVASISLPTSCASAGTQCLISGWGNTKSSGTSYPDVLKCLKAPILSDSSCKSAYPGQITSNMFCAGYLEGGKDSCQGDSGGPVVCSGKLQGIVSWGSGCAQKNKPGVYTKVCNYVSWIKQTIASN
Description: (§1) The anti-trypsin, anti-plasmin, anti-kallikrein and anti-thrombin activities were determined according to the method of Muramatsu et al. [M. Muramatus, T. Onishi, S. Makino, Y. Hayashi and S. Fujii, J. of Biochem., 58, 214 (1965)]. The data summarized in Table 1 are expressed in terms of molar concentration (ID50) of the test compound which inhibits 50% of the activity of each enzyme to hydrolyze TAME (tosylalginine methyl ester). The compound No. corresponds to the compound number shown in Examples.

[3] = target: T2, C1r (Homo sapiens, UniProt P00736); test: biochemical; conditions: molar concentration inhibiting 50% of AAME hydrolysis; read-out: ID50 C1r (Anti-C1 activity)
T2 sequence (P00736 464-705 limits assumed): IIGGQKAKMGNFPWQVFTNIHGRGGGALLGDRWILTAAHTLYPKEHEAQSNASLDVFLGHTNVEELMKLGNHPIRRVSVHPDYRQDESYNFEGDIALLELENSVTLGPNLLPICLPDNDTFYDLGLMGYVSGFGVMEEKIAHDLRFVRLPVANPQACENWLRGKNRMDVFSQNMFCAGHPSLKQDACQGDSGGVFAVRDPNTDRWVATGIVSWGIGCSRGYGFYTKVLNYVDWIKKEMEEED
T2 sequence (P00736 18-463 partner limits assumed): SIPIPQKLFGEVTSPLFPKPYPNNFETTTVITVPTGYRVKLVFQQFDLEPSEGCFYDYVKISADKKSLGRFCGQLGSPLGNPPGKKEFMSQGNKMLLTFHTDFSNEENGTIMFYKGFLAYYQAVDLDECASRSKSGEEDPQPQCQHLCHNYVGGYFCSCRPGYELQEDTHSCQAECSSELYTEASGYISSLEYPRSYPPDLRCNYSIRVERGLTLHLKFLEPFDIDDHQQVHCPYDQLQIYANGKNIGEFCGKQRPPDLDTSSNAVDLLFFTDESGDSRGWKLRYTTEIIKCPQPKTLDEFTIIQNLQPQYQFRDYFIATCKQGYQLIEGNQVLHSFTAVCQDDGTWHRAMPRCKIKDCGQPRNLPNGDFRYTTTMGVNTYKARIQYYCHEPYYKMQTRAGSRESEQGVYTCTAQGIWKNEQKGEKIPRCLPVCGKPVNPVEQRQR

[4] = target: Plasmin (Homo sapiens, UniProt P00747); test: Anti-plasmin activity (hydrolysis of TAME); assay type: biochemical; conditions: molar concentration inhibiting 50% of TAME hydrolysis; read-out: ID50 plasmin
Description: The anti-trypsin, anti-plasmin, anti-kallikrein and anti-thrombin activities were determined according to the method of Muramatsu et al. [M. Muramatus, T. Onishi, S. Makino, Y. Hayashi and S. Fujii, J. of Biochem., 58, 214 (1965)]. […] The compound No. corresponds to the compound number shown in Examples.

[5] = system: complement; test: Inhibition of complement mediated hemolysis; assay type: cell-based
Description: The complement mediated hemolysis is widely used as a means to determine the titration of complement. The principle of this method is based on the fact that hemolysis is caused by the activation of complement, when the latter is added to a complex (immune complex) of erythrocytes and the antibody thereof. The degree of hemolysis varies in proportion to the amount of complement added. Therefore, when a known amount of complement admixed with a C1 esterase inhibitor is used, the hemolysis must be suppressed in proportion to the inhibitory activity.
The anti-C1 esterase (C1r, C1s) activity was determined according to the method of Okamura et al. [K. Okamura, M. Muramatsu and B. Fujii, Biochem. Biophys. […] The figures in Table 2 have the following meanings: […]

[6] = target: T3, C1s (Homo sapiens, UniProt P09871); test: Anti-C1s activity (hydrolysis of ATEE); assay type: biochemical; conditions: molar concentration inhibiting 50% of ATEE hydrolysis; read-out: ID50 C1s (Anti-C1 activity)
T3 sequence (P09871 438-688 limits assumed): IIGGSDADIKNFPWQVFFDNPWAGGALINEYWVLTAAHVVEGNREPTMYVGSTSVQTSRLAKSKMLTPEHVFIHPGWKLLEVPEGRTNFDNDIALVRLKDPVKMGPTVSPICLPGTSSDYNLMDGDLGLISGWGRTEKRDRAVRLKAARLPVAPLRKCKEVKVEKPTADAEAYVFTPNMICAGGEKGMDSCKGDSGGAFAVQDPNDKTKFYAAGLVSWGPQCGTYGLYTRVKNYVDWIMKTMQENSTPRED
T3 sequence (P09871 16-437 partner limits assumed): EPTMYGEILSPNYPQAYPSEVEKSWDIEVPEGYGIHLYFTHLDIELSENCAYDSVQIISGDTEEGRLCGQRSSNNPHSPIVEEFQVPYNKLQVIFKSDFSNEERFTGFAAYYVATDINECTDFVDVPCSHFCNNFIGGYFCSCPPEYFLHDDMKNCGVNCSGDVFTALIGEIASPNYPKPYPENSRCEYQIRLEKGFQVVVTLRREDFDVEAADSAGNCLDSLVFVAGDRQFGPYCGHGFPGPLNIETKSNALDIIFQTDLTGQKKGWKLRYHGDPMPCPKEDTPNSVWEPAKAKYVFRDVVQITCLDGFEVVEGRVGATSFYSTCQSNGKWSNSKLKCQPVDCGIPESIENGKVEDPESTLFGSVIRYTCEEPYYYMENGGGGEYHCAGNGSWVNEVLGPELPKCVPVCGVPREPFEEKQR
Description: The anti-C1 esterase (C1r, C1s) activity was determined according to the method of Okamura et al. [K. Okamura, M. Muramatsu and B. Fujii, Biochem. Biophys. Acta, 295, 252-257 (1973)]. The inhibition of complement mediated hemolysis was determined according to the method of Baker et al. [B. R. Baker and E. H. Erickson, J. Med. Chem. 12, 408-414 (1969)]. The figures in Table 2 have the following meanings:
C1s: Molar concentration of the test compound which inhibits 50% of the ability of C1s to hydrolyse ATEE (acetyltyrosin ethyl ester) (ID50).

[7] = system: Kallikrein; test: Anti-kallikrein activity (hydrolysis of TAME); assay type: biochemical; conditions: molar concentration inhibiting 50% of TAME hydrolysis; read-out: ID50 kallikrein
Description: as §1

[8] = molar concentration inhibiting 50% of TAME hydrolysis

Sequence of Plasmin (P00747 581-810 limits assumed, species assumed): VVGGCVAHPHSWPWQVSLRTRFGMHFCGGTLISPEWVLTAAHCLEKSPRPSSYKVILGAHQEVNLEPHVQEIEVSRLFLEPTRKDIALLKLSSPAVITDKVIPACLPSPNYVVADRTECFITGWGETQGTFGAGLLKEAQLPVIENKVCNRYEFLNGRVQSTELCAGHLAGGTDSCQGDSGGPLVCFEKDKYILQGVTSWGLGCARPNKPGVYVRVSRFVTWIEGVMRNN
Sequence of Plasmin (P00747 97-580 partner limits assumed, species assumed): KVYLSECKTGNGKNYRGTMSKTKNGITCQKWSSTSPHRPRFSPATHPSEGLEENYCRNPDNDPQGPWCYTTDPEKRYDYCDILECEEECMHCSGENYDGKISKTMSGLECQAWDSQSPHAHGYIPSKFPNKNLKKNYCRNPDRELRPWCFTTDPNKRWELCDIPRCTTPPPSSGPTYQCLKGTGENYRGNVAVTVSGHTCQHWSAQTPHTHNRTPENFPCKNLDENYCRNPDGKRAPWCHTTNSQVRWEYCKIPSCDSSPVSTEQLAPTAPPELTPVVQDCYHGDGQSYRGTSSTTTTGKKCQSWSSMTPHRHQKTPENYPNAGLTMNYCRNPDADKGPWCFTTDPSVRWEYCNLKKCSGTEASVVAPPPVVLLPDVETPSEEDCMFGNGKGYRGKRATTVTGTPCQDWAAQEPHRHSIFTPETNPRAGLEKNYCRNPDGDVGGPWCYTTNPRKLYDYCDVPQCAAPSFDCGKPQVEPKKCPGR

## N=C(N)c1ccc2cc(OC(=O)c3ccc(NC(=O)C4CCC(CN)CC4)o3)ccc2c1 (stereo not drawn) [compound 37]
[1]; [8]
  IC50: 900 nM
[2]
  IC50: 700 nM
[3]
  IC50: 3000 nM
[4]
  IC50: 400 nM
[5]; 1 × 10^-5
  Inhibition of complement mediated hemolysis (%): 99%
[5]; 1 × 10^-6
  Inhibition of complement mediated hemolysis (%): 78%
[5]; 1 × 10^-7
  Inhibition of complement mediated hemolysis (%): 12%
[6]
  IC50: 400 nM
[7]
  IC50: 400 nM

## N=C(N)c1ccc2cc(OC(=O)c3ccc(NC4=NCCN4)o3)ccc2c1 [compound 10]
[1]; [8]
  IC50: 200 nM
[2]
  IC50: 40 nM
[3]
  IC50: 5000 nM
[4]
  IC50: 3000 nM
[5]; 1 × 10^-5
  Inhibition of complement mediated hemolysis (%): 100%
[5]; 1 × 10^-6
  Inhibition of complement mediated hemolysis (%): 100%
[5]; 1 × 10^-7
  Inhibition of complement mediated hemolysis (%): 91%
[6]
  IC50: 300 nM
[7]
  IC50: 400 nM

## N=C(N)c1ccc2cc(OC(=O)c3ccc(CN4CCN(Cc5ccccc5)CC4)o3)ccc2c1 [compound 26]
[1]; [8]
  IC50: 2000 nM
[2]
  IC50: 300 nM
[3]
  IC50: 500 nM
[4]
  IC50: 600 nM
[5]; 1 × 10^-5
  Inhibition of complement mediated hemolysis (%): 100%
[5]; 1 × 10^-6
  Inhibition of complement mediated hemolysis (%): 98%
[5]; 1 × 10^-7
  Inhibition of complement mediated hemolysis (%): 93%
[6]
  IC50: 4000 nM
[7]
  IC50: 3000 nM

## CNC(=N)NCc1ccc(C(=O)Oc2ccc3cc(C(=N)N)ccc3c2)o1 [compound 6]
[1]; [8]
  IC50: 2000 nM
[2]
  IC50: 4000 nM
[3]
  IC50: 500 nM
[4]
  IC50: 3000 nM
[5]; 1 × 10^-5
  Inhibition of complement mediated hemolysis (%): 100%
[5]; 1 × 10^-6
  Inhibition of complement mediated hemolysis (%): 100%
[5]; 1 × 10^-7
  Inhibition of complement mediated hemolysis (%): 100%
[6]
  IC50: 1000 nM
[7]
  IC50: 400 nM

## CN(C)CC(=O)NCc1ccc(C(=O)Oc2ccc3cc(C(=N)N)ccc3c2)o1 [compound 14]
[1]; [8]
  IC50: 700 nM
[2]
  IC50: 1000 nM
[3]
  IC50: 700 nM
[4]
  IC50: 2000 nM
[5]; 1 × 10^-5
  Inhibition of complement mediated hemolysis (%): 100%
[5]; 1 × 10^-6
  Inhibition of complement mediated hemolysis (%): 100%
[5]; 1 × 10^-7
  Inhibition of complement mediated hemolysis (%): 28%
[6]
  IC50: 300 nM
[7]
  IC50: 500 nM

## N=C(N)c1ccc2cc(OC(=O)c3ccc(CN4CCOCC4)o3)ccc2c1 [compound 25]
[1]
  IC50: 3000 nM
[2]
  IC50: 700 nM
[3]
  IC50: 1000 nM
[4]
  IC50: 600 nM
[5]; 1 × 10^-5
  Inhibition of complement mediated hemolysis (%): 100%
[5]; 1 × 10^-6
  Inhibition of complement mediated hemolysis (%): 98%
[5]; 1 × 10^-7
  Inhibition of complement mediated hemolysis (%): 82%
[6]
  IC50: 2000 nM
[7]
  IC50: 2000 nM

## N=C(N)Nc1ccc(C(=O)Oc2ccc3cc(C(=N)N)ccc3c2)o1 [Compound No. 3]
[1]; [8]
  IC50: 300 nM
[2]
  IC50: 100 nM
[3]
  IC50: 700 nM
[4]
  IC50: 500 nM
[5]; 1 × 10^-5
  Inhibition of complement mediated hemolysis (%): 100%
[5]; 1 × 10^-6
  Inhibition of complement mediated hemolysis (%): 100%
[5]; 1 × 10^-7
  Inhibition of complement mediated hemolysis (%): 99%
[6]
  IC50: 300 nM
[7]
  IC50: 900 nM
